Data reported in patent US8227516B2, “Compounds as histone deacetylase inhibitors” (4SC Discovery GmbH, priority 2002, dated 2012).
Read-outs that look alike come from different tables or passages of the source.

How the values were obtained:
[1] = tested on: HDAC-dependent transcriptional repression in reporter cell line UAS TK-luc (293T cells); test: Transcriptional reporter gene assay (UAS TK luciferase, Gal4-repressor fusion); assay type: cell-based; details: for concentration at which induction of luciferase reporter gene expression starts: 24 hours treatment; for fold induction at 8 µM: Homo sapiens, HEK-293T, read-out: fold induction of luciferase reporter gene expression
Procedure: Depicted is the fold induction of luciferase expression after treatment of cells at the indicated concentrations of Compounds 1, 2 and 3.
Transcriptional reporter gene assay. The transcriptional assay for repressor activity exploits activation and derepression of a Gal4-dependent reporter gene (Hildebrand et al., 2001, J Biol Chem 276, 9889-95; Maurer et al., 2002, Blood 99, 2647-52). This assay is performed with specifically constructed permanent cell lines. 293T cell were stably transfected with a UAS TK luciferase reporter plasmid (Heinzel et al., 1997 Nature 387, pp 43-48) and an expression plasmid for the Gal4 DNA binding domain fused to an HDAC-dependent repressor molecule. While Gal4 fusion proteins repress this activity, HDAC inhibitors induce relief of this repression which can be detected as an increase in reporter gene activity (e.g. by luciferase activity detection assay).
Addition of Compounds 1, 2 and 3 relieve this repression as measured by increased expression and activity of luciferase in lysates of treated cells after 24 hours. Both, Compound 1 and 2 induce luciferase reporter gene expression after stimulation of cells for 24 hours starting at a concentration of 8 μM (2-3 fold) with a maximum induction of more than 20 fold at 200 μM. Compound 3, however, induces expression of reporter gene already at a concentration of 1.6 μM with a maximum induction of almost 40 fold at 40 μM.

[2] = tested on: histone H4 acetylation in 293T cells; test: Induction of histone H4 hyperacetylation, Western Blot; assay type: cell-based; details: 6 hours
Source text: Induction of histone hyperacetylation. These acetylated histones can be detected by Western Blot analysis of whole cell extracts from histone deacetylase inhibitor-treated 293T cells using antibodies specific for the acetylated N-terminal lysine residues of histones H4 (Göttlicher et al., 2001, EMBO J. 20, 6969-78).
Since histone deacetylase inhibitors shift the enzymatic balance between histone acetyl transferases (HAT's) and histone deacetylases (HDAC's) towards HAT's by blocking HDAC's, they induce the accumulation of N-terminally hyperacetylated histones H4. This can be seen in FIG. 2 by the induction of histone hyperacetylation after treatment of 293T cells for 6 hours with Compounds 1, 2 and 3. Hyperacetylation can be seen with Compounds 1 and 2 at a concentration as low as 1.6 μM with a maximum induction at […], whereas compound 3 induces hyperacetylation starting at 320 nM.

[3] = tested on: HDAC activity in nuclear extracts from HeLa cells; test: In vitro HDAC activity in HeLa nuclear extracts (Fluor de Lys); assay type: biochemical; details: read-out: concentration giving 50% reduction of HDAC activity
Source text: Relative HDAC activity is shown as percent of activity of untreated nuclear extracts.
(§1) In vitro inhibition of recombinant HDAC's. The determination of histone deacetylase activity in HeLa nuclear extracts or recombinant HDAC proteins from High5 insect cells is based on the specific deacetylation of an artificial substrate (Fluor de Lys, Biomol). The substrate turn over may be detected and quantified by fluorometry. By addition of a potential HDAC inhibitor the hydrolysis of the substrate is constrained resulting in a decreased fluorometric signal. IC50 values may be calculated from dose-response curves.
(§2) The assay is separated in two steps: in the first step the substrate (Fluor de Lys/Biomol KI-104) is hydrolysed by histone deacetylases. In step two HDAC activity is terminated and the fluorophore is activated by the addition of a developer (Developer/Biomol KI-105). Nuclear extracts from HeLa cells (Biomol KI-140) or recombinant proteins and the potential HDAC inhibitor are mixed with reaction buffer (Biomol KI143) to a total volume of 25 μl per well of a 96 well plate. 25 μl substrate (1:100 dilution in reaction buffer) per well are added to start the reaction. A negative control without histone deacetylase activity and a positive control without HDAC inhibitor are treated likewise. The reaction is stopped after 15-60 min. by adding 50 μl developer (1:20 dilution in reaction buffer). After another 15 min. incubation time at room temperature the fluorescence signal is stable for 60 min and may be detected by a fluorescence reader (excitation filter: 390 nm, emission filter: 460 nm).

[4] = tested on: p21 expression in K562 cells; test: Protein expression profiling, Western Blot: p21 induction; assay type: cell-based; details: 36 hours
Source text: (§3) Protein expression profiling. The expression pattern induced by histone deacetylase inhibitors can be monitored by Western Blot analysis with antibodies against p21 and BCL-XL using whole cell extracts of cells treated with the respective compounds at the indicated concentrations. Modulation of protein expression is exemplified by the induction of expression of the cell cycle inhibitor/tumor suppressor p21 and the suppression of expression of the anti-apoptotic molecule BCL-XL.

[5] = tested on: BCL-XL expression in K562 cells; test: Protein expression profiling, Western Blot: BCL-XL down-regulation; assay type: cell-based; details: 36 hours
Source text: as §3

[6] = tested on: human tumor cell lines of breast, colon, pancreas and prostate origin; test: Growth inhibition of tumor cell lines (SRB assay); assay type: cell-based; details: various cancer cell lines, 72 hours
Procedure: Growth inhibition of tumor cell lines. The reduction in cellular biomass was measured by SRB-assay. For this assay cells were seeded in 96 well culture dishes at densities between 3000 and 8000 cells per well. After recovery of 24 hours cells were cultured for 48-72 hours in the absence or presence of the indicated concentrations of compounds. Synergistic reduction in total cellular biomass was assayed through SRB-assay by adding the compounds in the medium at the indicated concentrations and cultivate the cells for further 48 hours.
Cells were fixed with cold Trichloracetat (TCA) producing a final TCA concentration of 10%. After 1 hour of incubation at 4° C. the cells were washed five times with water and air dried. Fixed cells were stained for 30 minutes with 0.4% (wt/vol) Sulforhodamine B (SRB) dissolved in 1% acetic acid and washed four times with 1% acetic acid to remove unbound dye. After air drying bound dye was solubilized with 10 mM unbuffered Tris base (pH 10.5) for 5 minutes. Optical densities (OD) were read on a Molecular Devices Versa Max tunable microplate reader at 520-550 nm. Four test wells for each dose-response were set in parallel with 12 control wells per cell line. Measurement of the cell population density at time 0 (To; the time at which the drug was added) was also made from 12 reference wells of cells fixed with TCA just prior to drug addition to the test plates. Background OD of complete medium with 5% FBS fixed and stained as described above was also determined in 12 separate wells. From the unprocessed OD data from each microtiter plate the background OD measurements (i.e. OD of complete medium plus stain and OD of cells at T0) were subtracted thus giving the reduction of cellular biomass of the cells.

[7] = tested on: BV-173 cells; test: Measurement of apoptosis, FACS sub-G1 by propidium iodide staining; assay type: cell-based; details: with Z-VAD, 24 hours
Source text: Measurement of Apoptosis. FACS analysis of the cell cycle by propidium iodide (PI) staining. The cell cycle can be divided into four different sections: During G0/1-phase cells are in senescence or proliferate, in S-phase cells start replicating their DNA, and during G2- and M-phase cells undergo mitosis. […] Degradation of DNA is a marker for apoptosis. The sub-G1 area indicates the hypodiploid DNA peak corresponding to cells with fragmented DNA undergoing apoptosis Using a dye that intercalates with DNA (such as propidium iodide—PI) the cellular DNA content was determined. Between 5×10^5-1×10^6 cells were seeded out in cell culture dishes and treated for the desired time with the desired amount of test compound. After the incubation cells were harvested, washed in cold PBS, and the cell pellet was resuspended in 1 ml 70% ethanol (−20° C.). These cell pellets may be shelved for several month.
For PI staining 3 ml cold sodium citrate solution (38 mM, pH 7.4) was added, cells were pelleted and stained with 500 μl sodium citrate solution (38 mM, pH 7.4) containing 50 μg/ml PI and 5 μg/ml RNase. After a 30 minute incubation time at 37° C. in darkness, cells were analyzed via FACS analysis. The sub-G1-peak constitutes the amount of apoptotic cells.

[8] = biological target: T1, recombinant HDAC1 (Homo sapiens, UniProt Q13547); test: In vitro inhibition of recombinant HDAC1 (Fluor de Lys); assay type: biochemical; details: read-out: concentration giving 50% reduction of HDAC activity
T1 construct: made in house; host or cells: High5 insect cells
T1 sequence (Q13547 whole entry, species assumed): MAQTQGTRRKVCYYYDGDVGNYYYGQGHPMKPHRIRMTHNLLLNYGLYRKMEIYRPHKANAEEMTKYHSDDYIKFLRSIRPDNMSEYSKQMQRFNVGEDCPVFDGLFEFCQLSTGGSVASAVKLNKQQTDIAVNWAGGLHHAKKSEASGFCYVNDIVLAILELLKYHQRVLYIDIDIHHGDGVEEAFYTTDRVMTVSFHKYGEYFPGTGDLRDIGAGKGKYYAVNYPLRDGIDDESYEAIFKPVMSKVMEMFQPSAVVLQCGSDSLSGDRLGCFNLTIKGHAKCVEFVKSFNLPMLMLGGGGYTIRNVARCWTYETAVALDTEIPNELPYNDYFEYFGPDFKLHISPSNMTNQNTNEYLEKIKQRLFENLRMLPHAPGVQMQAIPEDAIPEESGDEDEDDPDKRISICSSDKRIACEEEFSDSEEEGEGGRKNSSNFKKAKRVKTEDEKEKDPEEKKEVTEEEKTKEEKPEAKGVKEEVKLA
Source text: (§4) Relative HDAC activity is shown as percent of activity of untreated HDAC enzymes.
as §1
as §2, with “A negative control without histone deacetylase activity and a positive control without HDAC inhibitor are treated likewise. The reaction is stopped after 15-60 min. by adding 50 μl developer (1:20 dilution in reaction buffer).” left out

[9] = biological target: T2, recombinant HDAC6 (Homo sapiens, UniProt Q9UBN7); test: In vitro inhibition of recombinant HDAC6 (Fluor de Lys); assay type: biochemical; details: read-out: concentration giving 50% reduction of HDAC activity
T2 construct: made in house; host or cells: High5 insect cells
T2 sequence (Q9UBN7 1-1215): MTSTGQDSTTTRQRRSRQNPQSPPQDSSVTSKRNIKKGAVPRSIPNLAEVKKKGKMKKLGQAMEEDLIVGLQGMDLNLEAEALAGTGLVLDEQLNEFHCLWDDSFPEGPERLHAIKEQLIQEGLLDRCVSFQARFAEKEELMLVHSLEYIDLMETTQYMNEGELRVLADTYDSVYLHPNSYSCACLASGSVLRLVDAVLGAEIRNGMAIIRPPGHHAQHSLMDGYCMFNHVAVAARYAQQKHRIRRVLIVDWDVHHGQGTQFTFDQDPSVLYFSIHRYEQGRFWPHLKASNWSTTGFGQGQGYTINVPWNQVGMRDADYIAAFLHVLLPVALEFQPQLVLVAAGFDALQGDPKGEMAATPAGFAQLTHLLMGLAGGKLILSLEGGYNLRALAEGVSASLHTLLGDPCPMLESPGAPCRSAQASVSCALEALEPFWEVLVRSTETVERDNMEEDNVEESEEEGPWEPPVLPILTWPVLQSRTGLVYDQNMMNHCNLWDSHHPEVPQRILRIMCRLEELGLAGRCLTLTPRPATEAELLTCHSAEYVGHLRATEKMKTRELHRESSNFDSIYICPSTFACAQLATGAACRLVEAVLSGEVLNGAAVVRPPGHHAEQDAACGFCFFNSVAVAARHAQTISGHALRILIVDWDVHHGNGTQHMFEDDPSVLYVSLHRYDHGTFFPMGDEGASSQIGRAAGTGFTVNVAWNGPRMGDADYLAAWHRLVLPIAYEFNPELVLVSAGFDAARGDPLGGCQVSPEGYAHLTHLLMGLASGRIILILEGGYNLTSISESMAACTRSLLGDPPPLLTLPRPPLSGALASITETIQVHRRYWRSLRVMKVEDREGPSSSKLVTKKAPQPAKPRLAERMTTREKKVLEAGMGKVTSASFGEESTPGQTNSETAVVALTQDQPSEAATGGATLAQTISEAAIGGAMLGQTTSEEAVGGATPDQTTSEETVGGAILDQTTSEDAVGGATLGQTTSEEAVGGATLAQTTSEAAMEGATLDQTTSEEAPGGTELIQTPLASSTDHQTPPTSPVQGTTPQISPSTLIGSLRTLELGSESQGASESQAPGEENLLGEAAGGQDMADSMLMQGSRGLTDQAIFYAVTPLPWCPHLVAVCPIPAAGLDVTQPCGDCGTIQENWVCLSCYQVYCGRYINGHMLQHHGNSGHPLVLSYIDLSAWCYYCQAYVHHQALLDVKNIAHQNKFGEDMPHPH
Source text: as §4, §1
as §2, with “A negative control without histone deacetylase activity and a positive control without HDAC inhibitor are treated likewise. The reaction is stopped after 15-60 min. by adding 50 μl developer (1:20 dilution in reaction buffer).” left out

[10] = biological target: T3, recombinant HDAC8 (Homo sapiens, UniProt Q9BY41); test: In vitro inhibition of recombinant HDAC8 (Fluor de Lys); assay type: biochemical; details: read-out: concentration giving 50% reduction of HDAC activity
T3 construct: made in house; host or cells: High5 insect cells
T3 sequence (Q9BY41 1-377): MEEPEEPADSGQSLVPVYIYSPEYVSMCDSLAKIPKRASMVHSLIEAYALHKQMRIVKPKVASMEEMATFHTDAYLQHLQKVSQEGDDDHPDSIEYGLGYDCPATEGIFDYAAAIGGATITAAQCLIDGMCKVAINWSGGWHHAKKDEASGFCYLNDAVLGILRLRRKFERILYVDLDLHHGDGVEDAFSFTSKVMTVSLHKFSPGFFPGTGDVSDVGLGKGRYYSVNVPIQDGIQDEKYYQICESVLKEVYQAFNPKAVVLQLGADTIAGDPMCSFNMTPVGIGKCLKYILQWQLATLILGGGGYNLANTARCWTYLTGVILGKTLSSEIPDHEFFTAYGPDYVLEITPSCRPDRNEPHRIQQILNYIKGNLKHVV
Source text: as §4, §1
as §2, with “A negative control without histone deacetylase activity and a positive control without HDAC inhibitor are treated likewise. The reaction is stopped after 15-60 min. by adding 50 μl developer (1:20 dilution in reaction buffer).” left out

[11] = read-out: concentration inducing 50% growth arrest (IC50), mean over cell lines
[12] = read-out: concentrations inducing 50% growth arrest (IC50), range over cell lines

| SMILES | concentration at which induction of luciferase reporter gene expression starts [1] [µM] | fold induction at 8 µM ([1]; 24 hours) | concentration of maximum induction of histone H4 hyperacetylation [2] [µM] | lowest concentration at which histone H4 hyperacetylation is seen [2] [µM] | IC50 [3] [µM] | concentration inducing p21 expression [4] [µM] | concentration inducing BCL-XL downregulation [5] [µM] | IC50 [6, 11] [µM] | IC50 [6, 12] [µM] | apoptotic process in the presence of pan-caspase inhibitor Z-VAD [7] | maximum induction of luciferase reporter gene expression ([1]; at 40 μM, 24 hours) [fold] | concentration at which histone H4 hyperacetylation starts [2] [nM] | IC50 [8] [nM] | IC50 [9] [nM] | IC50 [10] [nM] |
| --- | --- | --- | --- | --- | --- | --- | --- | --- | --- | --- | --- | --- | --- | --- | --- |
| O=C(CCC1CCCC1)NO [Compound 1, 3-Cyclopentyl-N-hydroxy-propionamide] | 8 | 2 to 3 | 40 | 1.6 | 14.7 | 40 | 200 | 33 | 8 to 70 | completely blocked | – | – | – | – | – |
| O=C(C=CC1CCCCC1)NO [Compound 3, 3-Cyclohexyl-N-hydroxy-acrylamide] | 1.6 | – | – | – | 0.9 | 8 | 8 | 2.6 | 0.5 to 8 | completely blocked | ~40 | 320 | 300 to 400 | 300 to 400 | 300 to 400 |
| O=C(CCC1CCCCC1)NO [Compound 2, 3-Cyclohexyl-N-hydroxy-propionamide] | 8 | 2 to 3 | 40 | 1.6 | 6.1 | 8 | 8 | 15 | 5 to 26 | completely blocked | – | – | – | – | – |
